Measured values taken from patent EP0903343A1, “Alpha-Substituted phenylpropionic acid derivative and medicine containing the same” (SSP Co., Ltd., priority 1997, dated 1999).

Test system: db/db Mice
Experiment: Antidiabetic effect on diabetic model mice (blood glucose lowering)
Type: in vivo
Details: Mus musculus, po, blood glucose 18 to 24 hours after final administration, vs control group, read-out: Percent reduction (%) of blood glucose; for inhibition in vivo at 50 mg/kg/day: 50 mg/kg/day orally once a day for 4 days; for inhibition in vivo at 20 mg/kg/day: 20 mg/kg/day orally once a day for 4 days
Procedure: The α-substituted phenylpropionic acid derivatives (1) according to the present invention were used to conduct a test for evaluating their activities against model mice suffering from non-insulin dependent diabetes mellitus (NIDDM). Incidentally, pioglitazone was used as a comparative compound.
db/db Mice (Crea Co.; preliminarily rearing male mice aged 7 to 9 weeks for a week and using 4 or 5 mice having a blood glucose level of at least 300 mg/dl as a group) were used as subject animals. A predetermined amount of each of the compounds according to the present invention or the comparative compound was orally administered to the mice for 4 days once a day with the compound suspended in a 0.5% aqueous solution of sodium carboxymethyl cellulose. At 18 to 24 hours after the final administration, blood was collected from each of the subject animals to determine its blood glucose level (found value) by means of a simplified blood glucose meter, Mediace (manufactured by Terumo Corporation). On the other hand, the blood glucose level of a group of mice (control group) to which only a 0.5% aqueous solution of sodium carboxymethyl cellulose had been administered was also determined (control value).
On the basis of the thus-determined blood glucose level as to each of the compounds according to the present invention and the comparative compound, percent reduction of blood glucose was calculated out in accordance with the following equation. Percent reduction (%) = [(Control value - Found value)/(Control value)] x 100 [formula]

Row | Structure (SMILES) | inhibition in vivo at 50 mg/kg/day | inhibition in vivo at 20 mg/kg/day | inhibition in vivo at 10 mg/kg/day (10 mg/kg/day orally once a day for 4 days)
1 | CCOC(Cc1ccc(OCCN2COc3ccccc3C2=O)cc1)C(=O)O (stereo not drawn) [Compound 1K] | 69% | – | –
2 | CCOC(Cc1ccc(OCCn2c(=O)c3ccc(C(F)(F)F)cc3n(C)c2=O)cc1)C(=O)O (stereo not drawn) [Compound 1AR] | – | 38% | –
3 | COC(Cc1ccc(OCCN2COc3ccccc3C2=O)cc1)C(N)=O (stereo not drawn) [Compound 1P, 2-methoxy-3-{4-[2-(4-oxo-3,4-dihydro-2H-1,3-benzoxazin-3-yl)ethoxy]phenyl}propanamide] | 66% | – | –
4 | CCOC(=O)C(Cc1ccc(OCCn2nc(C)c3ccccc3c2=O)cc1)OCC (stereo not drawn) [Compound 1BI, ethyl 2-ethoxy-3-{4-[2-(4-methyl-1-oxo-1,2-dihydrophthalazin-2-yl)ethoxy]phenyl}propanoate] | – | 52% | –
5 | CCc1ccc(CCOc2ccc(CC3SC(=O)NC3=O)cc2)nc1 (stereo not drawn) [Pioglitazone, pioglitazone, reference compound] | 44% | 26% | –
6 | CCOC(Cc1ccc(OCCn2ncc3ccccc3c2=O)cc1)C(=O)O (stereo not drawn) [Compound 1B, 2-ethoxy-3-{4-[2-(1-oxo-1,2-dihydrophthalazin-2-yl)ethoxy]phenyl}propanoic acid] | – | 43% | –
7 | CC(C)OC(Cc1ccc(OCCN2COc3ccccc3C2=O)cc1)C(N)=O (stereo not drawn) [Compound 1N] | 72% | – | –
8 | CCOC(Cc1ccc(OCCn2ncc3ccccc3c2=O)cc1)C(=O)NO (stereo not drawn) [Compound 1AA, 2-ethoxy-3-{4-[2-(1-oxo-1,2-dihydrophthalazin-2-yl)ethoxy]phenyl}propanohydroxamic acid] | – | 48% | –
9 | CCOC(Cc1ccc(OCCn2ccc3ccccc3c2=O)cc1)C(=O)O (stereo not drawn) [Compound 1BS] | – | 60% | –
10 | CCOC(Cc1ccc(OCCN2COc3ccccc3C2=O)cc1)C(N)=O (stereo not drawn) [Compound 1J] | – | 73% | –
11 | CCOC(Cc1ccc(CCn2cnc3ccccc3c2=O)cc1)C(N)=O (stereo not drawn) [Compound 1Q, 2-ethoxy-3-{4-[2-(4-oxo-3,4-dihydroquinazolin-3-yl)ethyl]phenyl}propanamide] | 49% | – | –
12 | CCSC(Cc1ccc(OCCN2COc3ccccc3C2=O)cc1)C(=O)O (stereo not drawn) [Compound 1O, 2-ethylthio-3-{4-[2-(4-oxo-3,4-dihydro-2H-1,3-benzoxazin-3-yl)ethoxy]phenyl}propanoic acid] | 42% | – | –
13 | CCOC(Cc1ccc(OCCn2ncc3ccccc3c2=O)cc1)C(N)=O (stereo not drawn) [Compound 1A, 2-ethoxy-3-{4-[2-(1-oxo-1,2-dihydrophthalazin-2-yl)ethoxy]phenyl}propanamide] | 73% | – | –
14 | CCOC(Cc1ccc(OCCn2nc(C)c3ccccc3c2=O)cc1)C(=O)O (stereo not drawn) [Compound 1BC] | – | – | 50%
